The source made the active and inactive calls.
Key:
Protein RecA = target: T1, Protein RecA (Mycobacterium tuberculosis, UniProt P9WHJ3); assay: Fluorescence Cell-Free Homogeneous Dose Retest to Identify Inhibitors of RecA-Intein Splicing Activity. [Related pubchem assays (depositor defined):AID2097, AID2223, AID489010, AID492950]; assay type: functional
T1 sequence (P9WHJ3 whole entry): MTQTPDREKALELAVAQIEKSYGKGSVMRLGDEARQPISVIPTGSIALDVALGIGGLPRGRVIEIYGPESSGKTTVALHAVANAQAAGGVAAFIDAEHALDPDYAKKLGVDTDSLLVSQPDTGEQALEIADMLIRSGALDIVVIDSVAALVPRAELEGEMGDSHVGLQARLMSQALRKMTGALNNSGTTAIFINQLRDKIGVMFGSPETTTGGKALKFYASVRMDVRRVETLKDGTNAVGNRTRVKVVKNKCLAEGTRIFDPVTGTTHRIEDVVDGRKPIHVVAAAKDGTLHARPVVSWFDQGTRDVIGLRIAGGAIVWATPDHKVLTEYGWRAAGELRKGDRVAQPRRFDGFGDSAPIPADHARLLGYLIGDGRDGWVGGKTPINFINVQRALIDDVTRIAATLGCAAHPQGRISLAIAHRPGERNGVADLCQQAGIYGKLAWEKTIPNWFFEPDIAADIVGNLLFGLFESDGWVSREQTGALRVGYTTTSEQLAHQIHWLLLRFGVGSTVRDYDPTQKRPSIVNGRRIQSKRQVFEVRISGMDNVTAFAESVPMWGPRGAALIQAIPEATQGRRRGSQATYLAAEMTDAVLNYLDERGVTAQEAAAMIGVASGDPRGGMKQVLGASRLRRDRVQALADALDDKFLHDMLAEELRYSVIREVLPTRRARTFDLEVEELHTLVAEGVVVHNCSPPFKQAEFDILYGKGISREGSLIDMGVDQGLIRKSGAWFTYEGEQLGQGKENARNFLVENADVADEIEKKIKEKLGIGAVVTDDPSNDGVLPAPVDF

[1] = target: T2, Replicative DNA helicase DnaB (Mycobacterium tuberculosis, UniProt P9WMR3); assay: DnaB intein splicing inhibitors, dose response, biochemical, cell-free fluorescence (AID 449749); assay type: functional
T2 sequence (P9WMR3 whole entry): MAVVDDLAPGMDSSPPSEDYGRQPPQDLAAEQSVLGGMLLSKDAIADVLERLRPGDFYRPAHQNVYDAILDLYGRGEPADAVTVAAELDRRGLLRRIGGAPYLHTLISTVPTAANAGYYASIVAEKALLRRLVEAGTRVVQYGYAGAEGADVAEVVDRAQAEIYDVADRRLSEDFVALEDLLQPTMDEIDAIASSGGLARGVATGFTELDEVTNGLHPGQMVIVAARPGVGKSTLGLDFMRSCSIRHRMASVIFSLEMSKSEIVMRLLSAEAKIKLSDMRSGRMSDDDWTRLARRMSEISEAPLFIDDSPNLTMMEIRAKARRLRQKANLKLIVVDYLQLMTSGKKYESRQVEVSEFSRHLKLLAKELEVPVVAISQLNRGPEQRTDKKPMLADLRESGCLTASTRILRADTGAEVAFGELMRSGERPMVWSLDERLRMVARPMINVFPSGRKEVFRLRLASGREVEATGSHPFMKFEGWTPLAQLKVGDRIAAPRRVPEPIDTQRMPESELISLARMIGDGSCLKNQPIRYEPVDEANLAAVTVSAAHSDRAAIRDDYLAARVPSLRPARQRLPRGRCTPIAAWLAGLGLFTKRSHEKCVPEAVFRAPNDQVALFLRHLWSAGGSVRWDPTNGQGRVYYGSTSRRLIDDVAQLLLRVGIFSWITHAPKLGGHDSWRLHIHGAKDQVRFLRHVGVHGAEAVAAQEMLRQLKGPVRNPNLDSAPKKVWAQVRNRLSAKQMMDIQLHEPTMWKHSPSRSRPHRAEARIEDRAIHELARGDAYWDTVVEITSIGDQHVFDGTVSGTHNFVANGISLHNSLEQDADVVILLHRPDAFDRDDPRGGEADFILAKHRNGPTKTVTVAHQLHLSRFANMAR

[2] = target: Tyrosyl-DNA phosphodiesterase 2 (Homo sapiens, UniProt O95551); assay: potency against TDP2 phosphodiesterase activity – biochemical, epi absorbance, IC50, dose response (AID 743297)
Chain of Tyrosyl-DNA phosphodiesterase 2 (O95551 whole entry): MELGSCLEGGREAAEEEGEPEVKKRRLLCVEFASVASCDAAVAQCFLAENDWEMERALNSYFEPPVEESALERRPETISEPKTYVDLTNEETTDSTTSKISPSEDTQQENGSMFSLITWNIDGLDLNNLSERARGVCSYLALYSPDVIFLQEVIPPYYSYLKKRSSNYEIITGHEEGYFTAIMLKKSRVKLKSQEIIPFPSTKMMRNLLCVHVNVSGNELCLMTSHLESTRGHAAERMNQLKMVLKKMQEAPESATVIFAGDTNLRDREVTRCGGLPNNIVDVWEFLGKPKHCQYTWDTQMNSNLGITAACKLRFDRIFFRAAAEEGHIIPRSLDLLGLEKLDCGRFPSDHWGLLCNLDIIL

[3] = blockers of bursicon-stimulated LGR2 cAMP reporter – cell-based, HEK293, CRE-luciferase reporter, cherry pick, set 2, dose response (AID 743343); assay type: functional;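 also: transfected cells were stimulated with diluted bursicon conditioned medium after compound addition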
[4] = toxicity toward HepG2 liver cells – cell-based, plate reader, cherry-pick, antagonist series, cytotoxicity control, dose response (AID 743416); assay type: functional
[5] = Luminescence Cell-Based Dose Confirmation HTS to Identify Inhibitors of Platelet Dense Granule Release. [Related pubchem assays: 1663 (Primary HTS), 1678 (Summary of Project)]; assay type: functional
[6] = target: Luciferin 4-monooxygenase (Photinus pyralis, UniProt P08659); assay: inhibition of purified Photinus pyralis luciferase – biochemical, luminescence, dose response (AID 1891)
Chain of Luciferin 4-monooxygenase (P08659 whole entry): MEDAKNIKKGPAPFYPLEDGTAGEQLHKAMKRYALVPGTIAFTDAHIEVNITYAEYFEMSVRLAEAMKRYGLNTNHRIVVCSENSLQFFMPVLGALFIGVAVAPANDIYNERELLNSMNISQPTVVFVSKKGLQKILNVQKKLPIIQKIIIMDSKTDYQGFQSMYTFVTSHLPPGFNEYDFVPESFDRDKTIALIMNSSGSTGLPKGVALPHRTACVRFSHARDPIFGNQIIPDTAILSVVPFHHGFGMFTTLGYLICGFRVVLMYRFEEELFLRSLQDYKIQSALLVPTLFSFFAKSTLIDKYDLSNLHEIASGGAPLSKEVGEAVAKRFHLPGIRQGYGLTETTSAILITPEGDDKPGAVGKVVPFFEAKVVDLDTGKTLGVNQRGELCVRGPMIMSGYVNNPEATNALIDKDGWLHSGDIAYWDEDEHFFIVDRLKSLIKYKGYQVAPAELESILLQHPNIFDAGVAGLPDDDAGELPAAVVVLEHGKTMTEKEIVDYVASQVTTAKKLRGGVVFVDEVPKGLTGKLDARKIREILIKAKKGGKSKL

[7] = A549 cell cytotoxicity, dose response, cytotoxicity control, plate reader, cherry-pick, antagonist series (AID 743412); assay type: functional, cell-based
[8] = blockade of melanocortin 4 receptor signaling – cell-based, plate reader, cherry pick, counter-screen for LGR2 antagonist project, dose response (AID 743444); assay type: functional;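 also: transfected HEK 293 cells stimulated with alpha-MSH peptide; potency of inhibitors of the alpha-MSH evoked signal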
[9] = viability loss in HEK293 cells – cell-based, plate reader, cherry-picked samples, cytotoxicity control, dose response (AID 743446); assay type: functional
[10] = target: T3, RNA-binding protein pos-1 (Caenorhabditis elegans, UniProt G5EF15); assay: disruptors of C. elegans POS-1 RNA interaction – biochemical, fluorescence polarization, dose response (AID 1964);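 also: purified POS-1 fused to maltose binding protein made in E. coli; potency of compounds blocking POS-1 binding to fluorescent RNA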
T3 sequence (G5EF15 whole entry): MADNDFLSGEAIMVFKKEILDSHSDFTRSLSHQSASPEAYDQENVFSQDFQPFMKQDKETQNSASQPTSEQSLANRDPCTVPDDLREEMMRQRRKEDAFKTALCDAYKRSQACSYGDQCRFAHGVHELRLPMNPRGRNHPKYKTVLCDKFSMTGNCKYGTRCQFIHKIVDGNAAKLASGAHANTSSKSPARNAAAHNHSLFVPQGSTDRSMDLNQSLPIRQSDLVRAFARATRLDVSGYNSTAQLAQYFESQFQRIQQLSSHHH

[11] = target: T4, Zinc finger protein mex-5 (Caenorhabditis elegans, UniProt Q9XUB2); assay: potency of MEX-5 RNA-binding blockers – biochemical, C. elegans, fluorescence polarization, dose response (AID 1960)
T4 sequence (Q9XUB2 whole entry): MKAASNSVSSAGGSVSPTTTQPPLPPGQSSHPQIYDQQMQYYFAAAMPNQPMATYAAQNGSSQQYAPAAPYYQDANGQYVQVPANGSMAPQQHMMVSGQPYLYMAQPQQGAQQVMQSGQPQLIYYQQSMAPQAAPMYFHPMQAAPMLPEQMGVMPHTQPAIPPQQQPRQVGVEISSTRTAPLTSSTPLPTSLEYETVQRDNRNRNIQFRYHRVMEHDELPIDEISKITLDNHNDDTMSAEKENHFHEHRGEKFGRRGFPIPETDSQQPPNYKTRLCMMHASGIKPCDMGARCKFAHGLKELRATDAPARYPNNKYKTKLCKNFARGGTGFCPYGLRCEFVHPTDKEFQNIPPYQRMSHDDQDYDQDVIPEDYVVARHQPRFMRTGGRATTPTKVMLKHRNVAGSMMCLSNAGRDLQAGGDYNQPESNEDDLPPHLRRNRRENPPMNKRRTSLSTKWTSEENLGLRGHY

[12] = target: Histone-lysine N-methyltransferase NSD2 (Homo sapiens, UniProt O96028); assay type: biochemical
Chain of Histone-lysine N-methyltransferase NSD2 (O96028 whole entry): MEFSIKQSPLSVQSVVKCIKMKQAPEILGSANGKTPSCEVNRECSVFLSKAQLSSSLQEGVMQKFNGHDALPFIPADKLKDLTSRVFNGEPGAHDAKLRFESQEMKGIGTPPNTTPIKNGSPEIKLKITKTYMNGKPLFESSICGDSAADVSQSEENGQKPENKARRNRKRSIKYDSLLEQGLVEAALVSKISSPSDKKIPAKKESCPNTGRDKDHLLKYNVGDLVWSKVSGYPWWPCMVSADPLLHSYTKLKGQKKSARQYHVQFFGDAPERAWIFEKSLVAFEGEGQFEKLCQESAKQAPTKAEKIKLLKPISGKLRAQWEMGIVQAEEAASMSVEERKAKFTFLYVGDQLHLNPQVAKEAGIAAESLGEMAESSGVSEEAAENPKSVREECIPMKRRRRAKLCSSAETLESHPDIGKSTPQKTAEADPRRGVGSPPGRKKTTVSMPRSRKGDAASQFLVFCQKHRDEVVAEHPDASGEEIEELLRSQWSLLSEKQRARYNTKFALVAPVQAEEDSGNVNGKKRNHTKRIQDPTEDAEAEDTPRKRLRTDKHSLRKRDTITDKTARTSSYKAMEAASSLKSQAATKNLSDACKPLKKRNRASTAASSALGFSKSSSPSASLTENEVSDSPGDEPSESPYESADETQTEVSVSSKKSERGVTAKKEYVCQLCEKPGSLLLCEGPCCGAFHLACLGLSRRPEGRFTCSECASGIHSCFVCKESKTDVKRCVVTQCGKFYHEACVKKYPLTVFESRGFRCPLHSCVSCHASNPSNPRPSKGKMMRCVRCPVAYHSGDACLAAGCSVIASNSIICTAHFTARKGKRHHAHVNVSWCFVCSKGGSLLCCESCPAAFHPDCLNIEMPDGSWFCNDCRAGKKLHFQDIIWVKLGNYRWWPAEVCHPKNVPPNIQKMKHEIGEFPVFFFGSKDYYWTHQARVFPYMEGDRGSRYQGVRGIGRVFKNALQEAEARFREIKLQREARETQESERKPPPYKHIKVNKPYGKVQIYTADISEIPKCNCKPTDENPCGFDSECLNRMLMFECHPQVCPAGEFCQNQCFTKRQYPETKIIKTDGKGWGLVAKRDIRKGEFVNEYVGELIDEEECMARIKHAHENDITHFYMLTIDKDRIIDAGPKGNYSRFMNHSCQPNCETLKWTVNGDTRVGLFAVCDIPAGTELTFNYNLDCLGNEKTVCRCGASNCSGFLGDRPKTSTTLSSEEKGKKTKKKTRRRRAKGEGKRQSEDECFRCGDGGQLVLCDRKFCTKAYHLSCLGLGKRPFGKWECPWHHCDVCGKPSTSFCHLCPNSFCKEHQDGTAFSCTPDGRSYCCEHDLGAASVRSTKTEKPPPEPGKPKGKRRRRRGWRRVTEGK

INS1 = assay: INS-1E survival protection against cytokine death – cell-based, luminescence, retest, dose response (AID 449756); assay type: functional; conditions: Rattus norvegicus;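 also: cell death triggered by IL-1 beta plus TNF-alpha plus IFN-gamma mixture; protective hits raise ATP signal compared with cytokine alone wells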
Tumor necrosis factor = Tumor necrosis factor (Homo sapiens, UniProt P01375); assay: analog potency on TNFa NF-kB signaling – cell-based, revised, SAR follow-up (AID 2337); assay type: functional
Chain of Tumor necrosis factor (P01375 whole entry): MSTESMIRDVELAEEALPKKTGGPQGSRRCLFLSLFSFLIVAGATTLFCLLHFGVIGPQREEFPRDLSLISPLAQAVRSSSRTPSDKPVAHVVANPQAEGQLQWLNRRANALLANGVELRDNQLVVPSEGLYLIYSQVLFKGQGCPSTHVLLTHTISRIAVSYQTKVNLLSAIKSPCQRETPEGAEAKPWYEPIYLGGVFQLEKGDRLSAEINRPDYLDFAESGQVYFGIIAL

HEK293 [13] = assay: cells; assay type: functional, cell-based; conditions: Homo sapiens
[14] = target: T5, COUP transcription factor 2 (Homo sapiens, UniProt P24468); assay: Luminescence-based cell-based high throughput dose response assay to identify inhibitors of COUP-TFII (NR2F2).; assay type: functional;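 also: HEK293 cells transiently cotransfected with COUP-TFII expression vector and reporter; luciferase reporter luminescence driven by COUP-TFII from the pX2-168 reporter plasmid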
T5 sequence (P24468 whole entry): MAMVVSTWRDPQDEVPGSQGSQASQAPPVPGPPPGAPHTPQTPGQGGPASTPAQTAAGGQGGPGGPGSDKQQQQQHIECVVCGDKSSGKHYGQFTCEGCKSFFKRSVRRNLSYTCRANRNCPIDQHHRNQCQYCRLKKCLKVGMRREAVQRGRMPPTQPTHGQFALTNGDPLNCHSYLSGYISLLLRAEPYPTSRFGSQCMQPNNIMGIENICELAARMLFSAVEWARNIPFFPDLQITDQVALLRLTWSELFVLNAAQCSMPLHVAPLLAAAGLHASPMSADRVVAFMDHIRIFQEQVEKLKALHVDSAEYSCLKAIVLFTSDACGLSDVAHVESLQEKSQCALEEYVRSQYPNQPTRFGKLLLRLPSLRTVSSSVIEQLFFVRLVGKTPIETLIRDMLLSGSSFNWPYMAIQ

cells = assay type: functional, cell-based; conditions: HEK-CNG
HEK293 [15] = assay: NOD2 signaling inhibitors in MDP-stimulated cells, cell-based, uHTS, luminescence (AID 2001); assay type: functional; conditions: Homo sapiens
[16] = target: T6, Nucleotide-binding oligomerization domain-containing protein 1 (Homo sapiens, UniProt Q9Y239); assay: blockers of NOD1 pathway activity – revised, SAR follow-up (AID 2333); assay type: functional
T6 sequence (Q9Y239 whole entry): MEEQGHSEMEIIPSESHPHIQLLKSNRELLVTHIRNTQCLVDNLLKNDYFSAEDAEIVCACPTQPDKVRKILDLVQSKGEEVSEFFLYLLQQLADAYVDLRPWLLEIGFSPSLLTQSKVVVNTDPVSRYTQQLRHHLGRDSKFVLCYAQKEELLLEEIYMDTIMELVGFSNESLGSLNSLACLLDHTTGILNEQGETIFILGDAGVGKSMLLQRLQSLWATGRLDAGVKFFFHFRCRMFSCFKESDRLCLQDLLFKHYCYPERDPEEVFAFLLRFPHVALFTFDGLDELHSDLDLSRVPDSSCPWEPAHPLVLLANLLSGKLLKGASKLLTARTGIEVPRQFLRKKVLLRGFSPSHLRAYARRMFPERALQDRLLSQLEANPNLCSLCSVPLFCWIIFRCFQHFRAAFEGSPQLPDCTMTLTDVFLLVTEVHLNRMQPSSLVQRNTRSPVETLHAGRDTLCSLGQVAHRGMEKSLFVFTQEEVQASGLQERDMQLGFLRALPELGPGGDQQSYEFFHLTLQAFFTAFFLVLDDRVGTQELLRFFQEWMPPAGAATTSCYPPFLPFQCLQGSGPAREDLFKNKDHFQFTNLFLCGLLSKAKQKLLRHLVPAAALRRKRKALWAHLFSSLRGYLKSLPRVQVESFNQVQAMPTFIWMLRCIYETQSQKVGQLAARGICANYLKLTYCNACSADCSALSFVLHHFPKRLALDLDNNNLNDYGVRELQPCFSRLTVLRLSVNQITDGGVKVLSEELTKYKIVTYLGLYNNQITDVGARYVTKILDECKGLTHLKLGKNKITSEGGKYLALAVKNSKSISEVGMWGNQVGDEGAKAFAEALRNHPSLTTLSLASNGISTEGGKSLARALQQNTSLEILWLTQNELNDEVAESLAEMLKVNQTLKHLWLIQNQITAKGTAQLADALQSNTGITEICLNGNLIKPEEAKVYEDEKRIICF

HEK293 [17] = assay: inhibition of NOD1-driven NF-kB reporter – cell-based, luminescence, uHTS, primary screen (AID 1578); assay type: functional; conditions: Homo sapiens
Galanin receptor type 3 = Galanin receptor type 3 (Homo sapiens, UniProt O60755); assay: Fluorescence-based cell-based primary high throughput dose response assay to identify antagonists of the Galanin Receptor 3 (GalR3).; assay type: functional
Chain of Galanin receptor type 3 (O60755 whole entry): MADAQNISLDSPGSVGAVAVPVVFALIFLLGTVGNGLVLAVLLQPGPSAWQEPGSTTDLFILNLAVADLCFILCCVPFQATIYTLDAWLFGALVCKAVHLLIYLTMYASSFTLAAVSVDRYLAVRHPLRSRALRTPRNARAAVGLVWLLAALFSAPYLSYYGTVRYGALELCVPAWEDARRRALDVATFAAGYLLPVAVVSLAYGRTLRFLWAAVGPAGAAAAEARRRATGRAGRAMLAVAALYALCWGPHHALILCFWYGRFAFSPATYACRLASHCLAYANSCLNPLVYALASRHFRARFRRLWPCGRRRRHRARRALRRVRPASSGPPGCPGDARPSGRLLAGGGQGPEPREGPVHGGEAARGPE

HEK293 [18] = assay: cells; conditions: Homo sapiens
HEK293 [19] = assay: cells; assay type: functional, cell-based; conditions: Homo sapiens; remark: listed apart in the source

SMILES	EC50 (Protein RecA)	AC50 [1]	AC50 [3]	AC50 [4]	AC50 [7]	AC50 [8]	AC50 [9]	IC50 [14]	EC50 (cells)	IC50 (Galanin receptor type 3)	other results
COc1ccc(/C=C2/C(=O)N(c3ccccc3)N=C2C)cc1Br	2.3 µM (active)	2.77 µM (active)	–	–	–	–	–	–	–	–	IC50 [2]: 102 µM (inactive)
Cc1cccc(NC(=O)c2ccc3c(c2)OCCO3)c1	–	–	7.92 µM (active)	> 52 µM (inactive)	> 52 µM (inactive)	9.29 µM (active)	> 52 µM (inactive)	–	–	–	EC50 [5]: 6.74 µM (active); EC50 [6]: 6.2 µM (active)
CC1=NN(c2ccc(C(=O)O)c(N)c2)C(=O)C1	1.98 µM (active)	3.01 µM (active)	–	–	–	–	–	–	–	–	EC50 [10]: 85.5 µM (active); EC50 [11]: 38.3 µM (active); AC50 [12]: > 20 µM (inactive)
C=CCC1(CC=C)CCCN1C(=O)c1cc(COc2ccc(C)nc2)on1	–	–	–	–	–	–	–	11.8 µM (inactive)	> 29.9 µM (inactive)	1.25 µM (active)	AC50 (INS1): 2.13 µM (active); IC50 (Tumor necrosis factor): 4.24 µM (active); IC50 (HEK293 [13]): 4.44 µM (active); IC50 (HEK293 [15]): 7.3 µM (active); IC50 [16]: 2.67 µM (active); EC50 (HEK293 [17]): 2.7 µM (active); IC50 (HEK293 [18]): 19 µM (active); IC50 (HEK293 [19]): 14.1 µM (active)
Nc1nc2ccccc2cc1C(=O)NCc1ccc(-c2ccccc2)cc1	–	–	–	–	–	–	–	2.01 µM (active)	> 29.9 µM (inactive)	0.392 µM (active)	–
COc1ccc(S(=O)(=O)Nc2ccc3c(c2)CC(=O)N([C@@H](C)CO)C[C@H](C)[C@@H](CN(C)Cc2ccc(Cl)c(Cl)c2)O3)cc1	–	–	20.5 µM (active)	14.3 µM (active)	12.4 µM (active)	15.9 µM (active)	15.7 µM (active)	–	–	–	–
